Measured values reported in patent US20230116972A1, “CD38 MODULATORS AND METHODS OF USE THEREOF” (Cytokinetics, Inc., priority 2021, published 2023).

Tests used:
mouse CD38 = target: T1, mouse CD38 (Mus musculus, UniProt P56528); assay: mouse recombinant CD38 enzyme assay (hydrolysis of NAD+); type: biochemical; details: read-out: mCD38 BioChem IC50
T1 sequence (P56528 1-304): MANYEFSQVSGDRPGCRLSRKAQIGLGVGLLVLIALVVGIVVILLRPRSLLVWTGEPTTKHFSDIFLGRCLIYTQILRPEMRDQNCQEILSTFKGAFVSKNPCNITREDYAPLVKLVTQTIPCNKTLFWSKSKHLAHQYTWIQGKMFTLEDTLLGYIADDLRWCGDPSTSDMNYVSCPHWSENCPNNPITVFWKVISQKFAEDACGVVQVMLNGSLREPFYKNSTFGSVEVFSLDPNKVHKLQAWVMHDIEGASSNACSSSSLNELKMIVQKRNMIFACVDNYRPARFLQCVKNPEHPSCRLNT
Outline: (§1)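 Inhibitors were titrated against purified CD38 hydrolysing NAD+ for 60 min at ambient temperature. Unconsumed substrate was quantified enzymatically via NADH-coupled resazurin reduction and fluorescence.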

human CD38 = target: T2, human CD38 (Homo sapiens, UniProt P28907); assay: human recombinant CD38 enzyme assay (hydrolysis of NAD+); type: biochemical; details: human recombinant CD38, 0.4 nM enzyme, 62.5 μM NAD+; read-out: hCD38 BioChem IC50
T2 sequence (P28907 1-300): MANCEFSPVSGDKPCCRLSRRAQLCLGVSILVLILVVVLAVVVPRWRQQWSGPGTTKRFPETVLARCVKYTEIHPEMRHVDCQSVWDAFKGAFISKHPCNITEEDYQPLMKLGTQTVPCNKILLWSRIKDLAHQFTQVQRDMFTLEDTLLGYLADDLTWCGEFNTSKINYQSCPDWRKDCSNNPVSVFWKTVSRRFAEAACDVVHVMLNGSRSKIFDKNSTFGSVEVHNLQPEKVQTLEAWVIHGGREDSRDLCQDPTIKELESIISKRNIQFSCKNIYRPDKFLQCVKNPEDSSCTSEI
Outline: as §1

[1] = target: T3, endogenous CD38 in HL60 cells (Homo sapiens, UniProt P28907); assay: cellular CD38 assay in HL60 cells (cellular NAD levels); type: cell-based; details: all-trans retinoic acid, 24 hours, read-out: hCD38 HL60 ATRA NAD Cell Diaphorase IC50
T3 construct: endogenous in cells; host or cells: HL60 (leukemic cells, treated with all-trans retinoic acid)
T3 sequence (P28907 1-300): T2 sequence (P28907 1-300)
Experimental: The compounds described herein were also assayed for their ability to inhibit the endogenous CD38 in a native cellular environment in the cellular CD38 assay, which measures the ability of the compound to modulate cellular NAD levels. […] The assays were initiated by plating 20 μL of HL60 cells in culture medium, at a density of 20000 cells per well to a 384-well Corning™ Multiwell Plates. Compounds in DMSO were added to the plates in a volume of 120 nL using the Labcyte Echo Liquid Handlers. […] The plates are then incubated for 24 hours. 50 μL of a readout-solution containing 0.2 U/mL Diaphorase enzyme, 40 uM resazurin, 10 uM FMN, 0.8 U/mL Alcohol dehydrogenase, 3% ethanol, 0.4 mg/mL bovine serum albumin, 0.2% Triton X-100 in 100 mM Tris-HCl, 30 mM EDTA, pH 8.4. The plates were read for fluorescence (Excitation/Emission=540 nm/590 nm) using an EnVision plate reader after 60 mins of incubation at ambient temperature. Note that, in Table 5, the “Compound No” corresponds to the compound numbers in Table 1.

| SMILES | IC50 (mouse CD38) [nM] | IC50 (human CD38) [nM] | IC50 [1] [nM] |
| --- | --- | --- | --- |
| O=C(Nc1ccc(F)cc1F)c1cccc(-n2ccnc2)n1 [Compound 24, N-(2,4-difluorophenyl)-6-(1H-imidazol-1-yl)picolinamide] | 45 | 104 | 1660 |
| COc1ccc(NC(=O)c2cccc(-n3ccnc3)n2)cn1 [Compound 25, 6-(1H-imidazol-1-yl)-N-(6-methoxypyridin-3-yl)picolinamide] | 13 | 13 | 468 |
| Cc1ccc(-n2ccnc2)nc1C(=O)Nc1cccnc1 [Compound 26, 6-(1H-imidazol-1-yl)-3-methyl-N-(pyridin-3-yl)picolinamide] | 7 | 16 | 629 |
| Cc1ncccc1NC(=O)c1cccc(-n2ccnc2)n1 [Compound 27, 6-(1H-imidazol-1-yl)-N-(2-methylpyridin-3-yl)picolinamide] | 64 | 448 | 10400 |
| Cc1cc(C(F)(F)F)ncc1NC(=O)c1cccc(-n2ccnc2)n1 [Compound 29, 6-(1H-imidazol-1-yl)-N-(4-methyl-6-(trifluoromethyl)pyridin-3-yl)picolinamide] | 110 | 389 | 8550 |
| O=C(N[C@H]1CC[C@H](O)CC1)c1cccc(-n2ccnc2)n1 [Compound 30, N-(4-hydroxycyclohexyl)-6-(1H-imidazol-1-yl)picolinamide] | 14 | 85 | 2830 |
| O=C(N[C@H]1CC[C@@H](O)CC1)c1cccc(-n2ccnc2)n1 [Compound 31, N-(4-hydroxycyclohexyl)-6-(1H-imidazol-1-yl)picolinamide] | 205 | 479 | 15700 |
| Cc1cc(C(=O)Nc2cccnc2)nc(-n2ccnc2)c1 [Compound 32, 6-(1H-imidazol-1-yl)-4-methyl-N-(pyridin-3-yl)picolinamide] | 1 | 3 | 264 |
| Cc1cccc(NC(=O)c2cccc(-n3ccnc3)n2)n1 [Compound 33, 6-(1H-imidazol-1-yl)-N-(6-methylpyridin-2-yl)picolinamide] | 228 | 313 | 13700 |
| O=C(Nc1ccc(F)c(F)c1)c1cccc(-n2ccnc2)n1 [Compound 34, N-(3,4-difluorophenyl)-6-(1H-imidazol-1-yl)picolinamide] | 6 | 4 | 509 |
| Cc1cc(C(=O)Nc2cccnc2)nc(-c2cncs2)c1 [Compound 35, 4-methyl-N-(pyridin-3-yl)-6-(thiazol-5-yl)picolinamide] | 68 | 210 | 3570 |
| O=C(Nc1cccnc1)c1nccc(-n2ccnc2)n1 [Compound 36, 4-(1H-imidazol-1-yl)-N-(pyridin-3-yl)pyrimidine-2-carboxamide] | 14 | 5 | 187 |
| O=C(Nc1cccnc1)c1ccnc(-n2ccnc2)n1 [Compound 37, 2-(1H-imidazol-1-yl)-N-(pyridin-3-yl)pyrimidine-4-carboxamide] | 6 | 4 | 339 |
| O=C(Nc1ccnc(C(F)(F)F)c1)c1cccc(-n2ccnc2)n1 [Compound 38, 6-(1H-imidazol-1-yl)-N-(2-(trifluoromethyl)pyridin-4-yl)picolinamide] | 7 | 10 | 873 |
| O=C(Nc1ccnc(C(F)F)c1)c1cccc(-n2ccnc2)n1 [Compound 39, N-(2-(difluoromethyl)pyridin-4-yl)-6-(1H-imidazol-1-yl)picolinamide] | 4 | 6 | 298 |
| O=C(Nc1cccnc1)c1cc(C(F)(F)F)cc(-n2ccnc2)n1 [Compound 40, 6-(1H-imidazol-1-yl)-N-(pyridin-3-yl)-4-(trifluoromethyl)picolinamide] | 2 | 6 | 959 |
